Reference: patent US20260191863A1, “PYRROLOPYRIMIDINE COMPOSITIONS FOR TREATMENT OF ITK MEDIATED CONDITIONS” (ACLARIS THERAPEUTICS, INC., priority 2022, published 2026)
Like-named read-outs stand apart in the source and are kept apart here.

Columns and labels:
[1] = test system: colitis (mouse T cell transfer model); test: Mouse T cell transfer model of inflammatory bowel disease; assay type: in vivo
Source text: The study evaluated Compound I dose dependent ability to inhibit inflammation in the mouse T cell transfer model of inflammatory bowel disease.

[2] = Phase 1 multiple ascending dose (MAD) study: pharmacokinetics; assay type: in vivo, human; conditions: for AUC(0-inf): read-out: Geometric Mean AUCINF_obs; for AUC(0-t): read-out: Geometric Mean AUC_0-12; for Tmax: read-out: Geometric Mean Tmax; for AUC: read-out: AUC0-τ
Source text: Secondary Endpoints—Compound I plasma concentrations and PK parameters: AUC0-tau, AUC0-inf, Ctrough, Cmax, tmax, Kel, t1/2, CLss/F, Vss/F, Rae.
Overall Design—This was a randomized, Investigator and participant-blind. Sponsor-unblinded, placebo-controlled study designed to evaluate the safety, tolerability, PK, and PD of Compound I in healthy participants. The study consisted of multiple cohorts assessing ascending doses of Compound I.
Approximately 60 participants were enrolled into 5 cohorts. At each dose level/cohort, a total of 10 participants were randomized to receive 2 weeks of oral doses of Compound I (n=8) or placebo (n=2). In Cohort 3, 20 participants were randomized to receive multiple oral doses of Compound I QD (n=8), Compound I TID (n=8), placebo QD (n=2), or placebo TID (n=2).
The study started with a planned dose of 5 mg twice daily (BID). Escalation to the next higher cohort was dependent on safety and PK data from all participants in the previous cohorts and was based on data from at least 6 participants up to at least 48 hours after the last dose. In no instance did the dose escalation steps exceed 3-fold the prior dose level.

ITK = target: T1, ITK (Homo sapiens, UniProt Q08881); test: Cell IC50 ITK (Jurkat/pPLCγ1); assay type: cell-based
T1 construct: (Jurkat/pPLCγ1); endogenous in cells; host or cells: Jurkat
T1 sequence (Q08881 1-620): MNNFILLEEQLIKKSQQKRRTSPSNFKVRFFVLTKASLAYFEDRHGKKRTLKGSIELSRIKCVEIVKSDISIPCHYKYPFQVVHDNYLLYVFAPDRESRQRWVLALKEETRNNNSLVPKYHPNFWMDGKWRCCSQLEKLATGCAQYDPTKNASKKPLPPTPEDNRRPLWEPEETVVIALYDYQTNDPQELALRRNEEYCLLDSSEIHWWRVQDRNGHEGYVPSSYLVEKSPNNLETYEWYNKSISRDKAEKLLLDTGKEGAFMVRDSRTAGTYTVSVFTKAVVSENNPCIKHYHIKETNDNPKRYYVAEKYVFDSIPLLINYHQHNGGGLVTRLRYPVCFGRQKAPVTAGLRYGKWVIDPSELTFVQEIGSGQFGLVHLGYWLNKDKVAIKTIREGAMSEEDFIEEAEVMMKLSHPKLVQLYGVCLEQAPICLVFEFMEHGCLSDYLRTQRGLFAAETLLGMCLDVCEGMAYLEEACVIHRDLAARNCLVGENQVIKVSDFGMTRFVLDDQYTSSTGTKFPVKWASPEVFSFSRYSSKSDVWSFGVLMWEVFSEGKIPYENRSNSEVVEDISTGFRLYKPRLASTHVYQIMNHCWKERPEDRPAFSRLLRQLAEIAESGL

[3] = human, plasma, oral, 5 mg, Cohort 1, 5 mg BID, Day 1
[4] = human, plasma, oral, 5 mg, Cohort 1, 5 mg BID, Day 7
[5] = human, plasma, oral, 5 mg, Cohort 1, 5 mg BID, Day 15
[6] = human, plasma, oral, 15 mg, Cohort 2, 15 mg BID, Day 1
[7] = human, plasma, oral, 15 mg, Cohort 2, 15 mg BID, Day 7
[8] = human, plasma, oral, 15 mg, Cohort 2, 15 mg BID, Day 15
[9] = human, plasma, oral, 25 mg, Cohort 4, 25 mg BID, Day 1
[10] = human, plasma, oral, 25 mg, Cohort 4, 25 mg BID, Day 7
[11] = human, plasma, oral, 25 mg, Cohort 4, 25 mg BID, Day 15
[12] = human, plasma, oral, 30 mg, Cohort 3a, 30 mg QD, Day 1
[13] = human, plasma, oral, 30 mg, Cohort 3a, 30 mg QD, Day 7
[14] = human, plasma, oral, 30 mg, Cohort 3a, 30 mg QD, Day 15
[15] = human, plasma, oral, 40 mg, Cohort 5, 40 mg BID, Day 1
[16] = human, plasma, oral, 40 mg, Cohort 5, 40 mg BID, Day 7
[17] = human, plasma, oral, 40 mg, Cohort 5, 40 mg BID, Day 15

C=CC(=O)N1C[C@H](Nc2ncnc3[nH]cc([C@H]4CC4(F)F)c23)CC[C@@H]1C [Compound I, 1-((2S,5R)-5-((5-((R)-2,2-difluorocyclopropyl)-7H-pyrrolo[2,3-d]pyrimidin-4-yl)amino)-2-methylpiperidin-1-yl)prop-2-en-1-one]
Colitis [1]: inhibited colitis
Effect compared with anti-IL12 (P40) [1]: The effect was greater than anti-IL12 (P40)
Inflammation in proximal and distal colon, and ileum [1]: dose dependently decreased inflammation
Geometric Mean Accumulation Ratio - AUCtau (Day 15/Day 1) ([2]; Cohort 1, 5 mg BID): 1.2
Geometric Mean Accumulation Ratio - Cmax (Day 15/Day 1) ([2]; Cohort 1, 5 mg BID): 1.2
Geometric Mean HL_Lambda_z ([2]; Cohort 1, 5 mg BID, Day 1): 1.51 h
Geometric Mean HL_Lambda_z ([2]; Cohort 1, 5 mg BID, Day 7): 1.50 h
Geometric Mean HL_Lambda_z ([2]; Cohort 1, 5 mg BID, Day 15): 1.65 h
Geometric Mean Accumulation Ratio - AUCtau (Day 15/Day 1) ([2]; Cohort 2, 15 mg BID): 1.6
Geometric Mean Accumulation Ratio - Cmax (Day 15/Day 1) ([2]; Cohort 2, 15 mg BID): 1.4
Geometric Mean HL_Lambda_z ([2]; Cohort 2, 15 mg BID, Day 1): 1.53 h
Geometric Mean HL_Lambda_z ([2]; Cohort 2, 15 mg BID, Day 7): 1.66 h
Geometric Mean HL_Lambda_z ([2]; Cohort 2, 15 mg BID, Day 15): 1.65 h
Geometric Mean Accumulation Ratio - AUCtau (Day 15/Day 1) ([2]; Cohort 3a, 30 mg QD): 1.3
Geometric Mean Accumulation Ratio - Cmax (Day 15/Day 1) ([2]; Cohort 3a, 30 mg QD): 1.1
Geometric Mean HL_Lambda_z ([2]; Cohort 3a, 30 mg QD, Day 1): 1.90 h
Geometric Mean HL_Lambda_z ([2]; Cohort 3a, 30 mg QD, Day 7): 1.87 h
Geometric Mean HL_Lambda_z ([2]; Cohort 3a, 30 mg QD, Day 15): 1.93 h
Geometric Mean Accumulation Ratio - AUCtau (Day 15/Day 1) ([2]; Cohort 4, 25 mg BID): 1.4
Geometric Mean Accumulation Ratio - Cmax (Day 15/Day 1) ([2]; Cohort 4, 25 mg BID): 1.3
Geometric Mean HL_Lambda_z ([2]; Cohort 4, 25 mg BID, Day 1): 1.70 h
Geometric Mean HL_Lambda_z ([2]; Cohort 4, 25 mg BID, Day 7): 1.91 h
Geometric Mean HL_Lambda_z ([2]; Cohort 4, 25 mg BID, Day 15): 1.97 h
Geometric Mean Accumulation Ratio - AUCtau (Day 15/Day 1) ([2]; Cohort 5, 40 mg BID): 1.7
Geometric Mean Accumulation Ratio - Cmax (Day 15/Day 1) ([2]; Cohort 5, 40 mg BID): 1.4
Geometric Mean HL_Lambda_z ([2]; Cohort 5, 40 mg BID, Day 1): 1.78 h
Geometric Mean HL_Lambda_z ([2]; Cohort 5, 40 mg BID, Day 7): 1.85 h
Geometric Mean HL_Lambda_z ([2]; Cohort 5, 40 mg BID, Day 15): 2.34 h
Dose proportionality of geometric mean exposure (Cmax and AUC) ([2]; MAD): increases slightly greater than dose-proportional
Plasma concentration dose dependence ([2]; MAD): increased in a dose-dependent manner
Time to peak plasma concentration after dosing ([2]; MAD): ≤ 2 h
AUC(0-inf) [2, 3]: 27 ng·h/mL
AUC(0-t) [2, 3]: 26 ng·h/mL
Cmax ([2]; human, plasma, oral, 5 mg, Cohort 1, 5 mg BID, Day 1, read-out: Geometric Mean Cmax): 10.8 ng/mL
Tmax [2, 3]: 36 min
AUC(0-inf) [2, 4]: 32 ng·h/mL
AUC(0-t) [2, 4]: 32 ng·h/mL
Cmax ([2]; human, plasma, oral, 5 mg, Cohort 1, 5 mg BID, Day 7, read-out: Geometric Mean Cmax): 13 ng/mL
Tmax [2, 4]: 46.2 min
AUC(0-inf) [2, 5]: 32 ng·h/mL
AUC(0-t) [2, 5]: 32 ng·h/mL
Cmax ([2]; human, plasma, oral, 5 mg, Cohort 1, 5 mg BID, Day 15, read-out: Geometric Mean Cmax): 12.5 ng/mL
Tmax [2, 5]: 46.2 min
AUC(0-inf) [2, 6]: 71 ng·h/mL
AUC(0-t) [2, 6]: 71 ng·h/mL
Cmax ([2]; human, plasma, oral, 15 mg, Cohort 2, 15 mg BID, Day 1, read-out: Geometric Mean Cmax): 28.8 ng/mL
Tmax [2, 6]: 48.6 min
AUC(0-inf) [2, 7]: 110 ng·h/mL
AUC(0-t) [2, 7]: 109 ng·h/mL
Cmax ([2]; human, plasma, oral, 15 mg, Cohort 2, 15 mg BID, Day 7, read-out: Geometric Mean Cmax): 42.5 ng/mL
Tmax [2, 7]: 46.2 min
AUC(0-inf) [2, 8]: 111 ng·h/mL
AUC(0-t) [2, 8]: 110 ng·h/mL
Cmax ([2]; human, plasma, oral, 15 mg, Cohort 2, 15 mg BID, Day 15, read-out: Geometric Mean Cmax): 38.9 ng/mL
Tmax [2, 8]: 57.6 min
Cmax ([2]; human, plasma, oral, 15 mg, Human 15 mg, read-out: Cmax): 38.9 ng/mL
AUC(0-inf) [2, 9]: 175 ng·h/mL
AUC(0-t) [2, 9]: 173 ng·h/mL
Cmax ([2]; human, plasma, oral, 25 mg, Cohort 4, 25 mg BID, Day 1, read-out: Geometric Mean Cmax): 64.3 ng/mL
Tmax [2, 9]: 50.4 min
AUC(0-inf) [2, 10]: 265 ng·h/mL
AUC(0-t) [2, 10]: 260 ng·h/mL
Cmax ([2]; human, plasma, oral, 25 mg, Cohort 4, 25 mg BID, Day 7, read-out: Geometric Mean Cmax): 89.6 ng/mL
Tmax [2, 10]: 48.6 min
AUC(0-inf) [2, 11]: 245 ng·h/mL
AUC(0-t) [2, 11]: 240 ng·h/mL
Cmax ([2]; human, plasma, oral, 25 mg, Cohort 4, 25 mg BID, Day 15, read-out: Geometric Mean Cmax): 81.8 ng/mL
Tmax [2, 11]: 42.6 min
Cmax ([2]; human, plasma, oral, 25 mg, Human 25 mg, read-out: Cmax): 81.8 ng/mL
AUC(0-inf) [2, 12]: 312 ng·h/mL
AUC(0-t) [2, 12]: 308 ng·h/mL
Cmax ([2]; human, plasma, oral, 30 mg, Cohort 3a, 30 mg QD, Day 1, read-out: Geometric Mean Cmax): 104 ng/mL
Tmax [2, 12]: 40.8 min
AUC(0-inf) [2, 13]: 375 ng·h/mL
AUC(0-t) [2, 13]: 366 ng·h/mL
Cmax ([2]; human, plasma, oral, 30 mg, Cohort 3a, 30 mg QD, Day 7, read-out: Geometric Mean Cmax): 124 ng/mL
Tmax [2, 13]: 52.2 min
AUC(0-inf) [2, 14]: 400 ng·h/mL
AUC(0-t) [2, 14]: 392 ng·h/mL
Cmax ([2]; human, plasma, oral, 30 mg, Cohort 3a, 30 mg QD, Day 15, read-out: Geometric Mean Cmax): 119 ng/mL
Tmax [2, 14]: 57.6 min
Cmax ([2]; human, plasma, oral, 30 mg, Human 30 mg, read-out: Cmax): 119 ng/mL
AUC(0-inf) [2, 15]: 288 ng·h/mL
AUC(0-t) [2, 15]: 285 ng·h/mL
Cmax ([2]; human, plasma, oral, 40 mg, Cohort 5, 40 mg BID, Day 1, read-out: Geometric Mean Cmax): 102 ng/mL
Tmax [2, 15]: 50.4 min
AUC(0-inf) [2, 16]: 487 ng·h/mL
AUC(0-t) [2, 16]: 480 ng·h/mL
Cmax ([2]; human, plasma, oral, 40 mg, Cohort 5, 40 mg BID, Day 7, read-out: Geometric Mean Cmax): 158 ng/mL
Tmax [2, 16]: 55.2 min
AUC(0-inf) [2, 17]: 484 ng·h/mL
AUC(0-t) [2, 17]: 472 ng·h/mL
Cmax ([2]; human, plasma, oral, 40 mg, Cohort 5, 40 mg BID, Day 15, read-out: Geometric Mean Cmax): 138 ng/mL
Tmax [2, 17]: 63 min
concentration at 6 h ([2]; human, plasma, oral, 15 mg BID, steady-state, 6 hours post-dose): 4.3 ng/mL
concentration at 8 h ([2]; human, plasma, oral, 25 mg BID, steady-state, 8 hours post-dose): 5.7 ng/mL
concentration at 11.5 h ([2]; human, plasma, oral, 30 mg QD, steady-state, 11.5 hours post-dose): ~4 ng/mL
AUC ([2]; plasma, oral, Human 15 mg): 110 ng·h/mL
AUC ([2]; plasma, oral, Human 25 mg): 240 ng·h/mL
AUC ([2]; plasma, oral, Human 30 mg): 392 ng·h/mL
Potency on ITK relative to ritlecitinib (ITK): ~ 100 ×
Potency relative to Ritlecitinib, ITK (Jurkat/pPLCγ1) (ITK): 81 fold
T cell receptor blockade, Compound I vs CsA (ITK): equipotent
IC50 (ITK; Jurkat, pPLCγ1): 8 nM
Selectivity for ITK (over JAK3) (ITK; cell IC50 ITK vs JAK3): 3 fold
